One experiment concerns the target human mTOR enzyme (Homo sapiens, UniProt P42345). Description: mTOR kinase assay (HTRF mTOR enzyme assay). The class given is biochemical. The settings on record: 5 μM ATP, 0.2 μM GST-S6K, one hour at 30° C. As to the method:
An HTRF mTOR enzyme assay was developed to assess the compounds' inhibitory activity. The mTOR assay buffer contained 10 mM Hepes (pH 7.4), 50 mM NaCl, 100 μg/ml BSA, 50 mM B-glycerophosphate, 10 mM MnCl2 and 0.5 mM DTT. […] 20 ng of human mTOR enzyme (<5% pure was preincubated with the compound for 10 minutes followed by the addition of 5 μM ATP and 0.2 μM GST-S6K (Zhang et al., Protein Expression and Purification 46, pp 414-420 (2006)). The reaction was incubated for one hour at 30° C. Anti phospho p70-S6K(Thr389) (˜1.7 ng/well, anti-phospho-p70S6K-cryptate (Pho-p70S6-Kin-K cat#64CUSKAY, from Cisbio)) and anti GST-XL665 (1:1 Ratio with the substrate GST-S6K, anti GST-XL665, cat#61 GSTXLB) Cisbio) were added after the reaction was stopped. The plates were read (PHERAstar, BMG) at least 2 hours after adding the anti phospho p70-S6K and the anti GST-XL665.
Dose-response curves were plotted from the inhibition data generated, each in duplicate, from 8 point serial dilutions of inhibitory compounds. Concentration of compound was plotted against the HTRF em665/em590 ratio signal. To generate IC50 values, the dose-response curves were fitted to a standard sigmoidal curve and IC50 values were derived by nonlinear regression analysis.

Experiment [1] deals with phosphorylated AKT Ser473 (pAKT S473), mTORC2 activity, PC3 cells. Kind of experiment: mTOR target engagement assay, immunofluorescent cell-based, pAKT S473 readout (mTORC2 activity). The settings on record: Homo sapiens, PC-3, PC3 cells; given as a number, no unit. An outline of the steps:
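After blocking, cells were stained overnight at 4 °C with anti-pAKT S473 antibody, then a fluorescent secondary; inhibition was read as reduced fluorescence intensity.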

Experiment [2] has as its system phosphorylated 4E-BP1 Thr37/46 (p4E-BP1 Thr37/46), mTORC1 activity, PC3 cells. Description: mTOR target engagement assay, immunofluorescent cell-based, p4E-BP1 Thr37/46 readout (mTORC1 activity). The settings on record: Homo sapiens, PC-3, PC3 cells; given as a number, no unit; read-out: p4E-1 Thr37/46 IC50. The gist of the method: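 Seed PC3 cells overnight; treat with compound dilutions for ninety minutes at 37° C; fix with glyoxal and block; stain with anti-p4E-BP1 Thr37/46 overnight at 4° C, then fluorescent secondary; read fluorescence and fit IC50 against DMSO-only controls.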

human mTOR enzyme, sequence (P42345 1360-2549 limits assumed): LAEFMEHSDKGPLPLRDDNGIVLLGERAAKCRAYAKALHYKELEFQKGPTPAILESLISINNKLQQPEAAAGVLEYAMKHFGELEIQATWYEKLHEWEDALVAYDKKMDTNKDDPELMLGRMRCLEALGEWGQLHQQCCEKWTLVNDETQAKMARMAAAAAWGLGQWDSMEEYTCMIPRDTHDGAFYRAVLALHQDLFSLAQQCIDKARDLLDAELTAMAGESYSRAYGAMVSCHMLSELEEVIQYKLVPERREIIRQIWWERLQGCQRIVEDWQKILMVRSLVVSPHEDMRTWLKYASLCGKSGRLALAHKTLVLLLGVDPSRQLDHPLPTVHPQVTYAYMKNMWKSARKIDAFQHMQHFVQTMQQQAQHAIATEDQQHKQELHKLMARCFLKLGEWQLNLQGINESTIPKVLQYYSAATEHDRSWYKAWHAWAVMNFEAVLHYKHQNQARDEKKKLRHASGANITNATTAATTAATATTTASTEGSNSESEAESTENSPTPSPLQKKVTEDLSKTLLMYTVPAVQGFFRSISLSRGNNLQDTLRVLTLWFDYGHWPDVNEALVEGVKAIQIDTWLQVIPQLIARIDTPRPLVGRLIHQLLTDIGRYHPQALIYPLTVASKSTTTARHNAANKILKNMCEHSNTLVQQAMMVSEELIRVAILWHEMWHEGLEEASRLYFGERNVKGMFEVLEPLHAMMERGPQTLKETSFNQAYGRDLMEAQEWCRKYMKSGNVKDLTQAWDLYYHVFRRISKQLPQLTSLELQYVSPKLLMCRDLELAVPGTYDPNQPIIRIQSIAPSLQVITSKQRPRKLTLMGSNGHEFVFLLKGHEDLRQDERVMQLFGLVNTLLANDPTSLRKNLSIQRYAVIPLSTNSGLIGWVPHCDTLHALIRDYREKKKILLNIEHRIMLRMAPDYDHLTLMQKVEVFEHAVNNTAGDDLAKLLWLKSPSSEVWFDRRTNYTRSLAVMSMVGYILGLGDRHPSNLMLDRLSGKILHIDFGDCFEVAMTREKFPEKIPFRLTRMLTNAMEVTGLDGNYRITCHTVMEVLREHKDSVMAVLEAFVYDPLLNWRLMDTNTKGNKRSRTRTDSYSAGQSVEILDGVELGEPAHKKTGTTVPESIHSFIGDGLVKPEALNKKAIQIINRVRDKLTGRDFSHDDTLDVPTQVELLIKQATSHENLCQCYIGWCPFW

Regarding `CC(=O)c1c([C@@H]2C[C@H]3CC[C@@H](C2)N3C(=O)c2nnc[nH]2)nc2c(-c3ccc(-c4nn(C)cc4F)nc3)cnn2c1N` [Compound 1.1.93, 1-(5-((1R,3s,5S)-8-(4H-1,2,4-triazole-3-carbonyl)-8-azabicyclo[3.2.1]octan-3-yl)-7-amino-3-(6-(4-fluoro-1-methyl-1H-pyrazol-3-yl)pyridin-3-yl)pyrazolo[1,5-a]pyrimidin-6-yl)ethanone], the results for the IC50 (against human mTOR enzyme; in experiment [1]; in experiment [2]) were 0.0023 µM, 4.07 µM and 3.88 µM, respectively.

Source of the values: patent US9227971B2, “Pyrazolo[1,5-a]pyrimidine compounds as mTOR inhibitors” (Merck Sharp & Dohme Corp., priority 2010, dated 2016).
